Key:
[1] = tested on: DMN-induced hepatic fibrosis/liver cirrhosis model; test: Ghrelin administration in DMN-induced hepatic fibrosis/liver cirrhosis model (survival rate); format: in vivo, rat; details: DMN-treated rats
Experimental: Ghrelin administration experiment using dimethylnitrosoamine (DMN)-induced hepatic fibrosis/liver cirrhosis model (Estimation of survival rate).
A hepatic fibrosis/liver cirrhosis rat model to be induced by DMN was prepared, rat ghrelin was subcutaneously injected, and the effect on hepatopathy was investigated.
Upon use, a dilution in which DMN (manufactured by Wako Pure Chemical Industries, Ltd.) was diluted with a physiological saline solution (manufactured by Otsuka Pharmaceutical Co., Ltd., physiological saline solution described in the Japanese Pharmacopoeia) to 1% concentration (v/v) was prepared, and this was intraperitoneafly administered to male rats (4 weeks old) so that DMN became 1 mL/kg. Administration was performed once a day, for consecutive three days in one week, and administration was repeated for 6 weeks, and the first time administration date was regarded as day 1.
Rat ghrelin (purchased from Peptide Institute Inc., Japan) was added to 5 weight % mannitol as a solvent to a concentration of 1 mg/mL, this was dispensed every necessary amount per one time, and freezing-stored at about −80° C. until its use. Upon use, this was thawed, and diluted with a physiological saline solution to a concentration of 30 μg/mL and 3 μg/mL to obtain a dosing solution. […]

[2] = tested on: DMN-induced hepatic fibrosis rat; test: Ghrelin administration in DMN-induced hepatic fibrosis/liver cirrhosis model (organ weight, hematology, serum biochemistry); format: in vivo; details: 35 days, DMN treatment
Experimental: Ghrelin administration experiment using DMN-induced hepatic fibrosis/liver cirrhosis model (Estimation of various parameters)
According to the same manner as that of Example 1 except that administration days were changed from 8 weeks to 35 days, an experiment was performed, and the effect of rat ghrelin on hepatopathy was estimated from a viewpoint of organ weight, hematology and serum biochemistry. A DMN-untreated group (normal rat) was used as a control group.

rat hepatocytes = test: Rat hepatocyte proliferation promoting activity (ki-67 immunostaining) after one week of repeated administration; format: in vivo; details: ghrelin 10 μg/kg i.v. two times a day for 7 days; for Positive ratio (ki-67): % printed in b244 only; for Number of ki-67 positive cells: among 231±27 hepatocytes, eight places of liver section
Experimental: Rat hepatocyte proliferation promoting activity by repeated administration of ghrelin for one week
10 μg/kg of ghrelin was repeatedly administered intravenously to Wistar male rats two times a day for 7 days and, on the next day from administration completion, liver was isolated and fixed. Then, ki-67 protein as a peptide which is expressed at cell growth phase was immunostained.
For quantatively assessing hepatocyte proliferation activity by ghrelin, eight places of the liver section of one case of the physiological saline-administered group and one case of the ghrelin-administered group were arbitrarily selected, and among about 200 hepatocytes in a visual field, the number of ki-67 positive cells was counted under a microscope.

[3] = tested on: Wistar male rats after 70% hepatectomy; test: Liver weight after hepatectomy under 40% restricted diet; format: in vivo, rat; details: ghrelin 30 μg/kg s.c. two times a day for 3 days after 70% hepatectomy, four days after
Experimental: Liver Weight after Hepatectomy
Seventy % of liver was excised under anesthesia in Wistar male rats, and 30 μg/kg of ghrelin or a physiological saline was subcutaneously injected two times a day for 3 days under 40% restricted diet. Four days after, rat liver was isolated, and the liver weight was measured.

Wistar male rats = test: Organ blood flow (microspheres); format: in vivo, rat; details: ghrelin 30 μg/kg s.c., under anesthesia; for Hepatic blood flow / Spleen blood flow / Stomach blood flow: mean ± standard deviation, 6 rats per group
PCNA mRNA = test: Expression of hepatocyte proliferation marker PCNA mRNA in liver (real time RT-PCR); format: in vivo, rat; details: ghrelin 30 μg/kg s.c., DMN-induced hepatic fibrosis rats
Experimental: (§1) Amount of expression of hepatocyte proliferation marker (PCNA) and HGF
(§2) Amounts of expression of a PCNA mRNA and a HGF mRNA in the liver after subcutaneous injection of a physiological saline and ghrelin to DMN-induced hepatic fibrosis rats were measured by the real time RT-PCR method.

HGF mRNA = test: Expression of HGF mRNA in liver (real time RT-PCR); format: in vivo, rat; details: ghrelin 30 μg/kg s.c., DMN-induced hepatic fibrosis rats
Experimental: as §1, §2

[4] = ghrelin 3 μg/kg s.c. once a day
[5] = ghrelin 3 μg/kg s.c. once a day, mean±S.E.
[6] = ghrelin 30 μg/kg s.c. once a day
[7] = ghrelin 30 μg/kg s.c. once a day, listed as ghrelin
[8] = ghrelin 30 μg/kg s.c. once a day, mean±S.E.
[9] = ghrelin 30 μg/kg s.c. once a day, mean±S.E., listed as ghrelin
[10] = ghrelin administration, dose not given

In the case of Ghrelin, the “survived at 56 days” value ([1]; ghrelin 3 μg/kg s.c. once a day from day 1 over 8 weeks) is reported as 75%, the “survival at 56 days” value ([1]; ghrelin 30 μg/kg s.c. once a day from day 1 over 8 weeks) is reported as “all cases survived” and the “Ascites (appearance frequency)” value [2, 4] is reported as 2/7. For the same substance, the Erythrocyte [2, 4] was 6.4 ± 0.2 ×10^6/μL, the Fibrinogen [2, 4] was 166 ± 9.5 mg/dL and the Hepaplastin time [2, 4] was 86.2 ± 11.8 s. The Leukocyte [2, 4] was 7.3 ± 0.6 ×10^3/μL, the Platelet [2, 4] was 52.3 ± 6.2 ×10^4/μL and the “Spleen weight increase as compared with normal rats” value [2, 4] was “more than 2 fold”. For the same substance, the “Δ liver weight” value [2, 5] was 13.6 ± 0.7 g, the “Δ spleen weight” value [2, 5] was 2.20 ± 0.08 g and the “Δ liver weight (g)” value ([2]; ghrelin 3 μg/kg s.c. once a day, mean±S.E., listed as ghrelin) was “reduced as compared with a normal rat”. For the same substance, the “Ascites (appearance frequency)” value [2, 6] was 0/7, the Erythrocyte [2, 6] was 6.8 ± 0.3 ×10^6/μL and the Fibrinogen [2, 6] was 207 ± 16.3 mg/dL. The Hepaplastin time [2, 6] was 77.8 ± 3.2 s, the Leukocyte [2, 6] was 6.6 ± 1.2 ×10^3/μL and the Platelet [2, 6] was 89.6 ± 5.5 ×10^4/μL. The “Ascites (appearance frequency)” value [2, 7] was “ascites did not appear”, the Erythrocyte [2, 7] was “returned to a normal level” and the Leukocyte [2, 7] was “returned to a normal level”. For the same substance, the Platelet [2, 7] was “the number of platelets was recovered”, the “Δ liver weight” value [2, 8] was 14.3 ± 0.6 g and the “Δ spleen weight” value [2, 8] was 1.83 ± 0.12 g. For the same substance, the “Δ liver weight (g)” value [2, 9] was “reduction in the liver weight was suppressed”, the “Δ spleen weight (g)” value [2, 9] was “increase was slightly suppressed” and the “hepaplastin time (in words)” value [2, 10] was “tended to be normalized”. For the same substance, the “serum fibrinogen (in words)” value [2, 10] was “a tendency that fibrinogen was recovered to normalization”, the “Positive ratio (ki-67)” value (rat hepatocytes) was 9.28 ± 3.26% and the “Positive ratio (ki-67)” value (rat hepatocytes; listed as ghrelin) was 9.28±3.26%. For the same substance, the “Number of ki-67 positive cells” value (rat hepatocytes) was 20.9 ± 6.1, the “Number of ki-67 positive cells” value (rat hepatocytes; listed as ghrelin) was 20.9±6.1 and the Liver weight [3] was 2.464 ± 0.133. The Liver weight ([3]; listed as ghrelin) was “the liver weight was increased”, the Hepatic blood flow (Wistar male rats) was 1.049 ± 0.414 mL/min/kg and the Spleen blood flow (Wistar male rats) was 1.099 ± 0.264 mL/min/kg. For the same substance, the Stomach blood flow (Wistar male rats) was 1.064 ± 0.486 mL/min/kg, the Hepatic blood flow (Wistar male rats; listed as ghrelin) was “increased” and the Spleen blood flow (Wistar male rats; listed as ghrelin) was “increased”. The Stomach blood flow (Wistar male rats; listed as ghrelin) was “increased”, the “blood flow in jejunum” value (Wistar male rats; versus physiological saline) was “a tendency of blood flow increase” and the “PCNA mRNA (amount of expression in the liver)” value (PCNA mRNA) was 2.083 ± 0.533. For the same substance, the “PCNA mRNA (amount of expression in the liver)” value (PCNA mRNA; listed as ghrelin) was “tended to be increased”, the “HGF mRNA (amount of expression in the liver)” value (HGF mRNA) was 2.025 ± 0.595 and the “HGF mRNA (amount of expression in the liver)” value (HGF mRNA; listed as ghrelin) was “increased”.

Reference: patent US10653637B2, “Preventives or remedies for hepatopathy” (priority 2003, dated 2020)
